Measurements published in patent US4129721A, “A-40104 antibiotics and process for production thereof” (priority 1977, dated 1978).
≈ marks a conversion by molar mass, not a printed value.

Assays:
Diplococcus pneumoniae = test: standard disc-plate assay; assay type: cell-based; conditions: Streptococcus pneumoniae, disc diameter 6.35 mm, read-out: Zone Diameters
Experimental: (§1) In one important aspect of this activity, the A-40104 antibiotics inhibit the growth of organisms which are resistant to other antibiotics. In Table IV the standard disc-plate-assay activity of A-40104 factors A and B against representative organisms is summarized. Activity is measured as the diameter (in mm) of the observed zone of inhibition; the diameter of disc used in each case was 6.35 mm.

[1] = system: Staphylococcus aureus 3055; test: standard disc-plate assay; assay type: cell-based; conditions: Penicillin-G susceptible, disc diameter 6.35 mm, read-out: Zone Diameters
Experimental: as §1

[2] = system: Staphylococcus aureus 3074; test: standard disc-plate assay; assay type: cell-based; conditions: Penicillin-G resistant, disc diameter 6.35 mm, read-out: Zone Diameters
Experimental: as §1

[3] = system: Staphylococcus aureus 3130; test: standard disc-plate assay; assay type: cell-based; conditions: Methicillin resistant, disc diameter 6.35 mm, read-out: Zone Diameters
Experimental: as §1

Streptococcus pyogenes [4] = test: standard disc-plate assay; assay type: cell-based; conditions: Group A, disc diameter 6.35 mm, read-out: Zone Diameters
Experimental: as §1

Streptococcus sp. 9960 = test: standard disc-plate assay; assay type: cell-based; conditions: Group D, disc diameter 6.35 mm, read-out: Zone Diameters
Experimental: as §1

Streptococcus pyogenes [5] = test: gradient-plate agar-dilution method; assay type: cell-based
[6] = system: Streptococcus sp. X-66 (Group D); test: gradient-plate agar-dilution method; assay type: cell-based
[7] = system: Neisseria gonorrhea Sand.; test: gradient-plate agar-dilution method; assay type: cell-based
[8] = system: Neisseria gonorrhea Lind.; test: gradient-plate agar-dilution method; assay type: cell-based
[9] = system: Hemophilus influenzae Brun; test: gradient-plate agar-dilution method; assay type: cell-based; conditions: Haemophilus influenzae
[10] = system: Hemophilus influenzae Dick.; test: gradient-plate agar-dilution method; assay type: cell-based; conditions: Haemophilus influenzae
[11] = system: Hemophilus influenzae 251; test: gradient-plate agar-dilution method; assay type: cell-based; conditions: Haemophilus influenzae
[12] = system: Hemophilus influenzae 259; test: gradient-plate agar-dilution method; assay type: cell-based; conditions: Haemophilus influenzae
[13] = system: Hemophilus influenzae 260; test: gradient-plate agar-dilution method; assay type: cell-based; conditions: Haemophilus influenzae
[14] = system: Staphylococcus aureus 3055; test: experimental bacterial infection in mice; assay type: in vivo; conditions: Staphylococcus aureus, 3055, sc, sc, two doses, challenge 1,260 × LD50 (ip), read-out: ED50 × 2
[15] = system: Streptococcus pyogenes C203; test: experimental bacterial infection in mice; assay type: in vivo; conditions: sc, two doses, challenge 195 × LD50 (ip), read-out: ED50 × 2
[16] = system: Streptococcus pneumoniae Park I; test: experimental bacterial infection in mice; assay type: in vivo; conditions: sc, read-out: ED50 × 2
Actinomyces israelii = test: standard agar-dilution test, anaerobic bacteria; assay type: cell-based; conditions: read after 2 hours incubation
From the text: (§2) Table VIII summarizes the activity of A-40104 factor A, as determined by the standard agar-dilution test.
(§3) *MIC determined by the agar-dilution method. Endpoints were read after 2

[17] = system: Bacteroides melaninogenicus 1856/28; test: standard agar-dilution test, anaerobic bacteria; assay type: cell-based; conditions: Prevotella intermedia, read after 2 hours incubation
From the text: as §2, §3

[18] = system: Bacteroides thetaiotaomicron; test: standard agar-dilution test, anaerobic bacteria; assay type: cell-based; conditions: 2 h
From the text: as §2, §3

Clostridium septicum = test: standard agar-dilution test, anaerobic bacteria; assay type: cell-based; conditions: 2 h
From the text: as §2, §3

Eubacterium aerofacines = test: standard agar-dilution test, anaerobic bacteria; assay type: cell-based; conditions: 2 h
From the text: as §2, §3

[19] = system: Peptostreptococcus anaerobius; test: standard agar-dilution test, anaerobic bacteria; assay type: cell-based; conditions: 2 h
From the text: as §2, §3

Clostridium perfringens = test: microbe, parasite or virus in culture; assay type: cell-based
[20] = system: Peptococcus asaccharolyticus; test: standard agar-dilution test, anaerobic bacteria; assay type: cell-based; conditions: Peptoniphilus asaccharolyticus, 2 h
Peptococcus prevoti = test: standard agar-dilution test, anaerobic bacteria; assay type: cell-based; conditions: read after 2 hours incubation
[21] = system: Bacteroides fragilis 1877; test: standard agar-dilution test, anaerobic bacteria; assay type: cell-based; conditions: Bacteroides fragilis, 1877, 2 h
[22] = system: Bacteroides fragilis 1936B; test: standard agar-dilution test, anaerobic bacteria; assay type: cell-based; conditions: 2 h
[23] = system: Bacteroides Melaninogenicus 2736; test: standard agar-dilution test, anaerobic bacteria; assay type: cell-based; conditions: 2 h
Bacteroides vulgatis = test: standard agar-dilution test, anaerobic bacteria; assay type: cell-based; conditions: 2 h
Bacteroides corrodens = test: standard agar-dilution test, anaerobic bacteria; assay type: cell-based; conditions: Eikenella corrodens, 2 h
[24] = acute toxicity, intraperitoneal injection in mice; conditions: mouse, in vivo, ip
From the text: A special advantage of the A-40104 antibiotics is that they are relatively nontoxic.

Pasteurella hemolytica = test: standard in vitro tests, Pasteurella; assay type: cell-based
From the text: (§4) Another veterinary aspect of this invention is the activity of the A-40104 antibiotics against Pasteurella species. P. multocida, for example, is a causative agent of respiratory infection in cattle, poultry, and swine. P. hemolytica is a major cause of respiratory disease in cattle. The activity of A-40104 factor A and its dihydro derivative against Pasteurella, as determined by standard in vitro tests, is summarized in Table X.

[25] = system: Pasteurella multocida (bovine); test: standard in vitro tests, Pasteurella; assay type: cell-based
From the text: as §4

powdery mildew = powdery mildew control on bean and barley plants; assay type: in vivo
From the text: The A-40104 antibiotics are also active against plant pathogens. […] The systemic activity of these antibiotics is especially advantageous in the control of plant pathogens or Spiroplasmas.

bacteria of Table V = test: gradient-plate agar-dilution method, series of in vitro tests; assay type: cell-based

**Q.** For C=CC1(C)CC(OC(=O)CO[C@@H]2OC[C@@H](O)[C@H](O)[C@H]2O)C2(C)C(C)CCC3(CCC(=O)C32)C(C)C1O (stereo partly drawn) [A-40104 factor A, β,D-xylopyranosyl acetal derivative of pleuromutilin], which zone of inhibition at 10 µg/disc (Diplococcus pneumoniae; 10 mcg/disc) is on record?
**A.** The zone of inhibition at 10 µg/disc was 14 mm.

**Q.** What about the zone of inhibition at 100 µg/disc (Diplococcus pneumoniae; 100 mcg/disc) of the same compound?
**A.** Its zone of inhibition at 100 µg/disc is 20 mm.

**Q.** What about the zone of inhibition at 10 µg/disc ([1]; 10 mcg/disc) of the same compound?
**A.** The zone of inhibition at 10 µg/disc was 27.2 mm.

**Q.** What about the zone of inhibition at 100 µg/disc ([1]; 100 mcg/disc) of the same compound?
**A.** The zone of inhibition at 100 µg/disc was 31.2 mm.

**Q.** What about the zone of inhibition at 10 µg/disc ([2]; 10 mcg/disc) of the same compound?
**A.** Its zone of inhibition at 10 µg/disc is 25.4 mm.

**Q.** What about the zone of inhibition at 100 µg/disc ([2]; 100 mcg/disc) of the same compound?
**A.** The zone of inhibition at 100 µg/disc was 29.2 mm.

**Q.** What about the zone of inhibition at 10 µg/disc ([3]; 10 mcg/disc) of the same compound?
**A.** Its zone of inhibition at 10 µg/disc is 29.2 mm.

**Q.** What about the zone of inhibition at 100 µg/disc ([3]; 100 mcg/disc) of the same compound?
**A.** Its zone of inhibition at 100 µg/disc is 34 mm.

**Q.** What about the zone of inhibition at 10 µg/disc (Streptococcus pyogenes [4]; 10 mcg/disc) of the same compound?
**A.** Its zone of inhibition at 10 µg/disc is 21 mm.

**Q.** And the zone of inhibition at 100 µg/disc (Streptococcus pyogenes [4]; 100 mcg/disc)?
**A.** Its zone of inhibition at 100 µg/disc is 27 mm.

**Q.** What about the zone of inhibition at 10 µg/disc (Streptococcus sp. 9960; 10 mcg/disc) of the same compound?
**A.** The zone of inhibition at 10 µg/disc was 0 mm.

**Q.** And the zone of inhibition at 100 µg/disc (Streptococcus sp. 9960; 100 mcg/disc)?
**A.** Its zone of inhibition at 100 µg/disc is 8.7 mm.

**Q.** What about the MIC (Streptococcus pyogenes [5]) of the same compound?
**A.** Its MIC is under 0.01 µg/mL.

**Q.** What about the MIC [6] of the same compound?
**A.** Its MIC is 0.5 µg/mL (≈ 0.979 µM).

**Q.** And the MIC [7]?
**A.** The MIC was 0.07 µg/mL (≈ 0.137 µM).

**Q.** What about the MIC [8] of the same compound?
**A.** Its MIC is 0.5 µg/mL (≈ 0.979 µM).

**Q.** And the MIC [9]?
**A.** The MIC was 2 µg/mL (≈ 3.92 µM).

**Q.** And the MIC [10]?
**A.** Its MIC is 2 µg/mL (≈ 3.92 µM).

**Q.** What about the MIC [11] of the same compound?
**A.** The MIC was 0.7 µg/mL (≈ 1.37 µM).

**Q.** And the MIC [12]?
**A.** The MIC was 0.7 µg/mL (≈ 1.37 µM).

**Q.** What about the MIC [13] of the same compound?
**A.** Its MIC is 0.7 µg/mL (≈ 1.37 µM).

**Q.** And the ED50 [14]?
**A.** The ED50 was 15.7 mg/kg.

**Q.** What about the ED50 [15] of the same compound?
**A.** Its ED50 is 3.6 mg/kg.

**Q.** What about the ED50 [16] of the same compound?
**A.** The ED50 was 21.5 mg/kg.

**Q.** What about the MIC (Actinomyces israelii) of the same compound?
**A.** Its MIC is at most 0.5 µg/mL.

**Q.** And the MIC [17]?
**A.** The MIC was 4 µg/mL (≈ 7.83 µM).

**Q.** And the MIC [18]?
**A.** The MIC was 2 µg/mL (≈ 3.92 µM).

**Q.** What about the MIC (Clostridium septicum) of the same compound?
**A.** Its MIC is 8 µg/mL (≈ 15.7 µM).

**Q.** What about the MIC (Eubacterium aerofacines) of the same compound?
**A.** The MIC was 16 µg/mL (≈ 31.3 µM).

**Q.** And the MIC [19]?
**A.** The MIC was 2 µg/mL (≈ 3.92 µM).

**Q.** And the MIC (Clostridium perfringens)?
**A.** Its MIC is 8 µg/mL (≈ 15.7 µM).

**Q.** And the MIC [20]?
**A.** Its MIC is at most 0.5 µg/mL.

**Q.** What about the MIC (Peptococcus prevoti) of the same compound?
**A.** Its MIC is at most 0.5 µg/mL.

**Q.** And the MIC [21]?
**A.** Its MIC is 8 µg/mL (≈ 15.7 µM).

**Q.** What about the MIC [22] of the same compound?
**A.** The MIC was 8 µg/mL (≈ 15.7 µM).

**Q.** And the MIC [23]?
**A.** Its MIC is 4 µg/mL (≈ 7.83 µM).

**Q.** And the MIC (Bacteroides vulgatis)?
**A.** Its MIC is 4 µg/mL (≈ 7.83 µM).

**Q.** What about the MIC (Bacteroides corrodens) of the same compound?
**A.** The MIC was 8 µg/mL (≈ 15.7 µM).

**Q.** And the LD50 [24]?
**A.** The LD50 was over 300 mg/kg.

**Q.** And the MIC (Pasteurella hemolytica)?
**A.** Its MIC is 25 µg/mL (≈ 49 µM).

**Q.** What about the MIC [25] of the same compound?
**A.** Its MIC is 6.25 µg/mL (≈ 12.2 µM).

**Q.** And the “control of powdery mildew” value (powdery mildew; bean and barley plants, soil drench, 100 ppm)?
**A.** Its value is “control of powdery mildew is obtained”.

**Q.** And the “activity against powdery mildew” value (powdery mildew; foliar spray or soil drench)?
**A.** The value was “active against powdery mildew”.

**Q.** What about the comparison with ampicillin (bacteria of Table V) of the same compound?
**A.** Its comparison with ampicillin is “compares favorably with ampicillin”.

**Q.** And the solubility in alcohols (solubility; alcohols such as methanol and ethanol)?
**A.** The solubility in alcohols was “soluble in alcohols such as methanol and ethanol”.

**Q.** What about the solubility in chloroform (solubility; chloroform) of the same compound?
**A.** Its solubility in chloroform is “partially soluble in chloroform”.

**Q.** And the solubility in water (solubility; water)?
**A.** Its solubility in water is “insoluble in water”.
